Values quoted from earlier work in US20070250301A1, “Normalizing cell assay data for models” (Cytokinetics, Inc., A Delaware Corporation, priority 2006, published 2007).
Numbered stars: 1 amine (or outer) side, 2 acyl side, 3 side chain; on linkers, the order of the positions; unused ones are H or OH. Bridge positions count the residues as written; N and C are the ends. Square brackets hold non-standard residues; d marks the D form. Peptide text beside a SMILES is read from it. Trp(2-yl) = O=C([C@H](Cc1c([*:3])[nH]c2ccccc12)N[*:1])[*:2]; Leu(4R-OH,5-OH) = C[C@](O)(CO)C[C@H](N)C(=O)O; cisHyp = O=C(O)[C@@H]1C[C@H](O)CN1

What was measured:
[1] = test system: filamentous F actin around canaliculi and tight junctions
bile flow = conditions: rats; resulting in cholestatic injury

| SMILES | effect on filamentous F actin [1] | effect on bile flow (bile flow) |
| --- | --- | --- |
| C[C@@H]1NC(=O)[C@H](C[C@@](C)(O)CO)NC(=O)[C@@H]2Cc3c([nH]c4ccccc34)SC[C@H](NC(=O)[C@@H]([C@H](C)O)NC1=O)C(=O)N1C[C@@H](O)C[C@H]1C(=O)N[C@@H](C)C(=O)N2 [phalloidin] (cyclo(A[dT]C[cisHyp]A[Trp(2-yl)][Leu(4R-OH,5-OH)]); thioether 3-6) | increase in filamentous F actin | – |
| C=C1[C@@H](C)[C@H]2[C@H](Cc3ccccc3)NC(=O)[C@]23OC(=O)/C=C/[C@H](O)CCC[C@@H](C)C/C=C/[C@H]3[C@@H]1O [cytochalasin B] | – | prompt arrest of bile flow |
